Data: patent US20170355705A1 (GlaxoSmithKline Intellectual Property (No.2) Limited, priority 2014, published 2017)

Target: T1, SIRT1 (Homo sapiens, UniProt Q96EB6)
T1 sequence (Q96EB6 1-747): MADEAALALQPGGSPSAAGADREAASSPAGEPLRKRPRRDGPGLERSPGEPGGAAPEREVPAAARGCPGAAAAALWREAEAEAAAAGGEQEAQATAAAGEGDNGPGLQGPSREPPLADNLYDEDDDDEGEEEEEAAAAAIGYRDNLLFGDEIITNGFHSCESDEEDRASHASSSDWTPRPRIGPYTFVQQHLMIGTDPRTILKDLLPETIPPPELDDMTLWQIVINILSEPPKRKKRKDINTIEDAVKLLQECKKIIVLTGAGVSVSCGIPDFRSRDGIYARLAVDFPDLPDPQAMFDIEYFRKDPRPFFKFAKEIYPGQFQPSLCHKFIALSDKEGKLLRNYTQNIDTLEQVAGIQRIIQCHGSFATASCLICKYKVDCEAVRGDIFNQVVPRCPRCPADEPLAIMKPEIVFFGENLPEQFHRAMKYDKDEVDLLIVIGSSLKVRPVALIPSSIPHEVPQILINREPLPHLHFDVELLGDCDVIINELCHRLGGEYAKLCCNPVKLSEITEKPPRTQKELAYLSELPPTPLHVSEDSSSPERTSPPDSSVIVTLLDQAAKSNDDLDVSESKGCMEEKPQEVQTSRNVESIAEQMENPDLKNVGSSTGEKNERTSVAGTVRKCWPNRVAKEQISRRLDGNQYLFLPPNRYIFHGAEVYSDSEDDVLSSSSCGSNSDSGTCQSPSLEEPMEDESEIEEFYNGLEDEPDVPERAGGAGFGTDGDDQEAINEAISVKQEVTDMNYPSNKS
Test: Trp mass spectrometry assay of SIRT1 activity (EC1.5, percent maximum activation)
Type: biochemical
Details: Trp mass spectrometry assay; for TRP Activity (EC1.5): EC1.5 = concentration giving 150% activation of SIRT1
How it was run: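 N-terminal His-tagged human SIRT1, expressed in BL21(DE3) and purified, was incubated 25 min with an acetylated Trp peptide and NAD plus test compound at varying concentrations, then quenched with formic acid. OAADPR or deacetylated peptide was quantified by mass spectrometry versus compound-free control; EC1.5 is the concentration giving 50% activity increase, with percent maximum activation.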

[1] = percent maximum activation of SIRT1
[2] = 0.5 μM peptide substrate, 120 μM βNAD+, 10 nM SIRT1, 25 minutes at 25° C.

| SMILES | TRP Activity (EC1.5) | TRP MAX RESP (percent maximum fold activation) [1] | TRP Activity (EC1.5, concentration of test compound that results in 150% activation of SIRT1) [2] | TRP MAX RESP (percent maximum fold activation) [2] |
| --- | --- | --- | --- | --- |
| Cc1cc(-c2ccc3c(n2)N(C(=O)Nc2c[nH]nn2)[C@H]2CCN3C2)ccn1 [Example 167, (4S)-7-(2-methylpyridin-4-yl)-N-(1H-1,2,3-triazol-4-yl)-3,4-dihydro-1,4-methanopyrido[2,3-b][1,4]diazepine-5(2H)-carboxamide] | B (EC1.5 1-25 μM) | A (Fold activation ≧150%) | – | – |
| Cc1cc(-c2ccc3c(n2)N(C(=O)NC2CCCC2)[C@H]2CCN3C2)ccn1 [Example 175, (4S)-N-cyclopentyl-7-(2-methylpyridin-4-yl)-3,4-dihydro-1,4-methanopyrido[2,3-b][1,4]diazepine-5(2H)-carboxamide] | B (EC1.5 1-25 μM) | A (Fold activation ≧150%) | – | – |
| CCn1cc(-c2ccc3c(n2)N(C(=O)Nc2cnccn2)[C@H]2CCN3C2)cn1 [Example 225, (4S)-7-(1-ethyl-1H-pyrazol-4-yl)-N-(pyrazin-2-yl)-3,4-dihydro-1,4-methanopyrido[2,3-b][1,4]diazepine-5(2H)-carboxamide] | – | – | B (EC1.5 1-25 μM) | A (Fold activation ≧150%) |
| CN(C)c1cccc(-c2ccc3c(n2)N(C(=O)Nc2cnccn2)[C@H]2CCN3C2)c1 [Example 172, (4S)-7-(3-(dimethylamino)phenyl)-N-(pyrazin-2-yl)-3,4-dihydro-1,4-methanopyrido[2,3-b][1,4]diazepine-5(2H)-carboxamide] | B (EC1.5 1-25 μM) | A (Fold activation ≧150%) | – | – |
| CC1CCN(c2ccc3c(n2)N(C(=O)Nc2cnccn2)[C@H]2CCN3C2)CC1 [Example 198, (4S)-7-(4-methylpiperidin-1-yl)-N-(pyrazin-2-yl)-3,4-dihydro-1,4-methanopyrido[2,3-b][1,4]diazepine-5(2H)-carboxamide] | B (EC1.5 1-25 μM) | A (Fold activation ≧150%) | – | – |
| Cc1cc(-c2ccc3c(n2)N(C(=O)Nc2nccc(C)n2)[C@H]2CCN3C2)ccn1 [Example 263] | – | – | – | A (Fold activation ≧150%) |
| Cc1cc(-c2nc3c(cc2Cl)N2CC[C@@H](C2)N3C(=O)Nc2ccnc(O[C@@H]3CCOC3)n2)ccn1 [Example 22, (4S)-8-chloro-7-(2-methylpyridin-4-yl)-N-(2-(((R)-tetrahydrofuran-3-yl)oxy)pyrimidin-4-yl)-3,4-dihydro-1,4-methanopyrido[2,3-b][1,4]diazepine-5(2H)-carboxamide] | C (EC1.5>25 μM) | B (Fold Activation <150%) | – | – |
| CC(C)(O)CCOc1cccc(NC(=O)N2c3nc(-c4cccc(C(F)(F)F)c4)c(Cl)cc3N3CC[C@H]2C3)n1 [Example 59, (4S)-8-chloro-N-(6-(3-hydroxy-3-methylbutoxy)pyridin-2-yl)-7-(3-(trifluoromethyl)phenyl)-3,4-dihydro-1,4-methanopyrido[2,3-b][1,4]diazepine-5(2H)-carboxamide] | B (EC1.5 1-25 μM) | A (Fold activation ≧150%) | – | – |
| Cc1cc(-c2ccc3c(n2)N(C(=O)Nc2cn(C)nn2)[C@H]2CCN3C2)ccn1 [Example 138, (4S)-N-(1-methyl-1H-1,2,3-triazol-4-yl)-7-(2-methylpyridin-4-yl)-3,4-dihydro-1,4-methanopyrido[2,3-b][1,4]diazepine-5(2H)-carboxamide] | B (EC1.5 1-25 μM) | A (Fold activation ≧150%) | – | – |
| O=C(Nc1ccccn1)N1c2nc(-c3cccc(C(F)(F)F)c3)c(Cl)cc2N2CC[C@H]1C2 [Example 35, (4S)-8-chloro-N-(pyridin-2-yl)-7-(3-(trifluoromethyl)phenyl)-3,4-dihydro-1,4-methanopyrido[2,3-b][1,4]diazepine-5(2H)-carboxamide] | A (EC1.5<1 μM) | A (Fold activation ≧150%) | – | – |
| Cc1cc(-c2ccc3c(n2)N(C(=O)Nc2nccc(-c4cn(C)nc4C)n2)[C@H]2CCN3C2)ccn1 [Example 358, (4S)-N-(4-(1,3-dimethyl-1H-pyrazol-4-yl)pyrimidin-2-yl)-7-(2-methylpyridin-4-yl)-3,4-dihydro-1,4-methanopyrido[2,3-b][1,4]diazepine-5(2H)-carboxamide] | – | – | B (EC1.5 1-25 μM) | A (Fold activation ≧150%) |
| CNc1cc(-c2ccc3c(n2)N(C(=O)Nc2cnccn2)[C@H]2CCN3C2)ccn1 [Example 144, (4S)-7-(2-(methylamino)pyridin-4-yl)-N-(pyrazin-2-yl)-3,4-dihydro-1,4-methanopyrido[2,3-b][1,4]diazepine-5(2H)-carboxamide] | B (EC1.5 1-25 μM) | A (Fold activation ≧150%) | – | – |

Next, values leading:

| TRP Activity (EC1.5) | TRP MAX RESP (percent maximum fold activation) [1] | TRP Activity (EC1.5, concentration of test compound that results in 150% activation of SIRT1) [2] | TRP MAX RESP (percent maximum fold activation) [2] | SMILES |
| --- | --- | --- | --- | --- |
| B (EC1.5 1-25 μM) | A (Fold activation ≧150%) | – | – | Cc1cc(-c2nc3c(cc2Cl)N2CC[C@@H](C2)N3C(=O)Nc2cccc(OC[C@@H](O)CO)n2)ccn1 [Example 93, (4S)-8-chloro-N-(6-((S)-2,3-dihydroxypropoxy)pyridin-2-yl)-7-(2-methylpyridin-4-yl)-3,4-dihydro-1,4-methanopyrido[2,3-b][1,4]diazepine-5(2H)-carboxamide] |
| B (EC1.5 1-25 μM) | A (Fold activation ≧150%) | – | – | Cn1cc(-c2nc3c(cc2Cl)N2CC[C@@H](C2)N3C(=O)Nc2ccnc(OC[C@@H](O)CO)c2)cn1 [Example 105, (4S)-8-chloro-N-(2-((S)-2,3-dihydroxypropoxy)pyridin-4-yl)-7-(1-methyl-1H-pyrazol-4-yl)-3,4-dihydro-1,4-methanopyrido[2,3-b][1,4]diazepine-5(2H)-carboxamide] |
| – | – | – | A (Fold activation ≧150%) | Cc1cc(-c2ccc3c(n2)N(C(=O)Nc2cc(-c4c(C)nn(C)c4C)ccn2)[C@H]2CCN3C2)ccn1 [Example 365] |
| A (EC1.5<1 μM) | A (Fold activation ≧150%) | – | – | O=C(Nc1cncc(OCCCO)n1)N1c2nc(-c3cccc(C(F)(F)F)c3)c(Cl)cc2N2CC[C@H]1C2 [Example 73, (4S)-8-chloro-N-(6-(3-hydroxypropoxy)pyrazin-2-yl)-7-(3-(trifluoromethyl)phenyl)-3,4-dihydro-1,4-methanopyrido[2,3-b][1,4]diazepine-5(2H)-carboxamide] |
| – | – | – | A (Fold activation ≧150%) | Cc1cc(-c2ccc3c(n2)N(C(=O)Nc2cc(-n4ccnn4)ccn2)[C@H]2CCN3C2)ccn1 [Example 341] |
| B (EC1.5 1-25 μM) | A (Fold activation ≧150%) | – | – | O=C(Nc1ccnc(OC2CCOCC2)n1)N1c2nc(-c3cccc(C(F)(F)F)c3)c(Cl)cc2N2CC[C@H]1C2 [Example 55, (4S)-8-chloro-N-(2-((tetrahydro-2H-pyran-4-yl)oxy)pyrimidin-4-yl)-7-(3-(trifluoromethyl)phenyl)-3,4-dihydro-1,4-methanopyrido[2,3-b][1,4]diazepine-5(2H)-carboxamide] |
| A (EC1.5<1 μM) | A (Fold activation ≧150%) | – | – | O=C(Nc1ccnc(OC[C@@H](O)CO)c1)N1c2nc(-c3cccc(C(F)(F)F)c3)c(Cl)cc2N2CC[C@H]1C2 [Example 61, (4S)-8-chloro-N-(2-((S)-2,3-dihydroxypropoxy)pyridin-4-yl)-7-(3-(trifluoromethyl)phenyl)-3,4-dihydro-1,4-methanopyrido[2,3-b][1,4]diazepine-5(2H)-carboxamide] |
| A (EC1.5<1 μM) | A (Fold activation ≧150%) | – | – | O=C(Nc1cncc(OC[C@@H](O)CO)n1)N1c2nc(-c3cccc(C(F)(F)F)c3)ccc2N2CC[C@H]1C2 [Example 123, (4S)-N-(6-((S)-2,3-dihydroxypropoxy)pyrazin-2-yl)-7-(3-(trifluoromethyl)phenyl)-3,4-dihydro-1,4-methanopyrido[2,3-b][1,4]diazepine-5(2H)-carboxamide] |
| – | – | C (EC1.5>25 μM) | B (Fold Activation <150%) | O=C(Nc1cccnc1)N1c2nc(N3CCOC[C@@H]3CO)ccc2N2CC[C@H]1C2 [Example 203, (4S)-7-((S)-3-(hydroxymethyl)morpholino)-N-(pyridin-3-yl)-3,4-dihydro-1,4-methanopyrido[2,3-b][1,4]diazepine-5(2H)-carboxamide] |
